# Experimental data from US20220127584A1, “Reactive persulfides mediate sulfur respiration in mitochondria via sulfide:quinone oxidoreductase” (Bio-Xcelerator, Inc., priority 2020, published 2022).
# Experiments:
# WT and Sqrdl^ΔN/ΔN MEFs = test: MEF mitochondrial membrane potential (JC-1 staining); type: cell-based, mouse
# Protocol: To determine the membrane potential of mitochondria under several experimental conditions, JC-1 staining was performed according to the method previously reported ^37,38. Accumulation of the cell-permeable JC-1 probe (Abcam) in mitochondria depends on the membrane potential and is associated with a fluorescence emission shift from green (emission 527 nm) to red (emission 590 nm). Briefly, WT and Sqrdl^ΔN/ΔN MEFs, cultured in 8-well multichamber slides (Matsunami, Osaka, Japan) coated with collagen, were treated with mitochondrial ETC inhibitors (rotenone, atpenin A5, and antimycin A) the and ADP/ATP carrier inhibitor CATR^23 as described in the figure legends. For JC-1 staining, cultured cells were washed with HKRB buffer (20 mM HEPES, 103 mM NaCl, 4.77 mM KCl, 0.5 mM CaCl2, 1.2 mM MgCl2, 1.2 mM KH2PO4, 25 mM NaHCO3, and 15 mM glucose, pH 7.3), incubated with 20 μM JC-1 at 37° C. for 20 min, rinsed twice with HKRB buffer, and examined with a confocal laser scanning microscope (Nikon C2 plus, with NIS-Elements 5.01 software). ImageJ software was used for image processing and calculation of JC-1 fluorescence intensities.
# [1] = system: fission yeast (Schizosaccharomyces pombe); test: Chronological life span of yeast; type: cell-based
# Protocol: Three single colonies derived from each strain were analyzed, as previously described^31 with slight modification. Yeast cells were cultured in SC medium (at a starting OD600 of 0.1) at 30° C. with shaking. Measurement of cell viability began after 72 h of culture (day 0) and continued every 2-3 days by plating a fraction of the culture onto a fresh YPD plate (2% glucose, 0.5% yeast extract, 1% peptone, and 2% agar) to determine the number of colony-forming units (CFUs). […] Cell survival rates were calculated by normalizing the CFUs at each time point to the CFUs at day 0.
# [2] = system: mitochondria isolated from livers of WT and Sqrdl^ΔN/ΔN mice; test: Oxygen consumption of liver mitochondria (Clark-type electrode); set-up: species or system mouse; conditions: 10-μM NaHS supply
# Protocol: Mitochondria were isolated from 4- to 6-week-old mice by using two-step differential centrifugations, as previously described^41 with minor modifications. In brief, after gallbladder removal, fresh liver specimens weighing 1.0-1.5 g were minced and homogenized in ice-cold isolation buffer (10 mM Tris/MOPS, 1 mM EGTA/Tris, and 200 mM sucrose, pH 7.4). When liver weight was less than 1 g, livers were pooled. Homogenate were centrifuged at 600 g and 4° C. for 10 min to remove cellular debris and nuclei. Supernatants containing mitochondrial fraction were then centrifuged at 7,000 g at 4° C. for 10 min. Obtained mitochondrial pellets were washed with new isolation buffer and underwent centrifugation again (7,000 g for 10 min). […] The protein concentration was determined with the BCA Protein Assay Kit (Thermo Fisher Scientific). Absorbance at 562 nm was measured with NanoDrop 2000 (Thermo Fisher Scientific).
# Mitochondrial oxygen consumption was measured by using a Clark-type electrode (Oxytherm system; Hansatech Instruments, Norfolk, UK). […] The OCR through complex I was measured as a mitochondrial basic function by sequentially adding 2.5 mM malate/5 mM glutamate, 150 μM ADP, and 100 nM carbonyl cyanide 4-(trifluoromethoxy) phenylhydrazone (FCCP). The respiratory control index (RCI) was calculated by using the ratio of state 3 to state 4. […]
# [3] = system: mitochondria from WT and Sqrdl^ΔN/ΔN MEFs; test: Membrane potential of isolated mitochondria (TMRE time-lapse imaging); set-up: species or system mouse; conditions: for membrane potential of isolated mitochondria: supplementation to isolated MEF mitochondria
# Protocol: MEF mitochondria were isolated by differential centrifugation. WT and Sqrdl^ΔN/ΔN MEFs were homogenized in the extraction buffer (10 mM Tris-HCl, 250 mM sucrose, and 0.5 mM EGTA, pH 7.4) with a Dounce homogenizer (Teflon glass) and were centrifuged at 2,000 g at 4° C. for 5 min to remove nuclei and cell debris. The supernatants were centrifuged at 12,000 g at 4° C. for 10 min, and mitochondrial pellets were washed three times with buffer and kept at −80° C. until use.
# To determine the membrane potential in isolated mitochondria under several experimental conditions, TMRE staining was performed according to the method previously reported^40. The TMRE fluorescence intensity at a maximum emission of 574 nm depends on the mitochondrial membrane potential. Briefly, mitochondria from WT and Sqrdl^ΔN/ΔN MEFs were adsorbed on the bottom of 8-well μ-Slides (Ibidi, Martinsreid, Germany) coated with poly-D-lysine (Sigma-Aldrich, St. Luis, Mo., USA), after which they were stained with 10 nM TMRE (Biotium, Fremont, Calif., USA) and 50 nM MitoTracker Green FM (Thermo Fisher Scientific, Waltham, Mass., USA) at 25° C. for 10 min. TMRE fluorescence intensity (561 nm excitation and 605±15 nm emission), which is positive with MitoTracker Green FM fluorescence, was measured in individual mitochondria by using the region of interest (ROI) tool of the confocal laser scanning microscope (Nikon C2 plus, with NIS elements version 5.01 software). […] Specifically, of 200 ROIs, the top 30 ROIs were selected for analysis of TMRE fluorescence intensity in response to TMPD/ascorbate, and their means and s.d. values were calculated.
# [4] = system: fission yeast (Schizosaccharomyces pombe); type: cell-based; conditions: SQR-deficient yeast (Δhmt2) compared with WT yeast; increasing/high concentrations
# [5] = system: isolated mitochondria from WT and Sqrdl^ΔN/ΔN MEFs; test: Quantification of sulfur metabolites in isolated mitochondria (LC-ESI-MS/MS); set-up: species or system mouse; conditions: addition to isolated mitochondria
# Protocol: Yeast, mouse tissues, and MEFs were analyzed for the low-molecular-weight analytes cysteine (CysSH), cysteine hydropersulfide (CysSSH), glutathione (GSH), glutathione hydropersulfide (GSSH), bis-S (H2S), bis-SS (HSSH), cystine (CysSSCys), oxidized glutathione, or glutathione disulfide (GSSG), oxidized glutathione trisulfide (GSSSG), and thiosulfate (HS2O3^−) as previously described^9. Briefly, samples were homogenized with a Psychotron homogenizer (Microtec Co. Ltd.) or sonicator in ice-cold methanol in the presence of 5 mM β-(4-hydroxyphenyl)ethyl iodoacetamide (HPE-IAM). Homogenates were incubated at 37° C. for 20 min and then centrifuged at 15,000 rpm at 4° C. for 10 min. Supernatants were separated and diluted 10 times with 0.1% formic acid. Stable isotope-labeled internal standards dissolved in 0.1% formic acid solution were added to the samples to a final concentration of 25 nM. A sample of 10 μl was injected into the LC-ESI-MS/MS instrument (LCMS-8060). Various persulfide derivatives were identified and quantified by means of MRM, as previously described^9. Cell pellets were reconstituted in 0.1% SDS in PBS buffer, homogenized by sonication, and centrifuged again at 15,000 rpm at 4° C. for 10 min. […] Each analyte concentration was normalized to the measured protein concentration. […]
# [6] = WT MEFs, increasing concentrations in the culture media, SQR-dependent
compound,measurement,setting,value
N[C@@H](CSSC[C@H](N)C(=O)O)C(=O)O [cystine],mitochondrial membrane potential,WT and Sqrdl^ΔN/ΔN MEFs; [6],elevation of membrane potential
"S [NaHS, sodium hydrosulfide]",mitochondrial membrane potential,WT and Sqrdl^ΔN/ΔN MEFs; [6],elevation of membrane potential
same,chronological lifespan,[1]; SQR-deficient yeast,no effect
same,chronological lifespan,[1]; WT yeast,extended the lifespan
same,oxygen consumption,[2],induced a small oxygen consumption only in WT mitochondria
same,"membrane potential response to succinate, malate, and glutamate and to TMPD with ascorbate","[3]; 3 μM NaHS, isolated mitochondria",retained the membrane potential response
same,concentration at which the membrane potential response was halted,"[3]; isolated mitochondria, data not shown",more than 30 μM
same,membrane potential of isolated mitochondria,[3],generated the membrane potential in an SQR-dependent manner
antimycin A,effect on CATR-induced increase in membrane potential,WT and Sqrdl^ΔN/ΔN MEFs; WT MEFs,reduced
"[Cl][Cd][Cl] [Cd, CdCl2]",susceptibility of yeast growth to the substance,[4],enhanced susceptibility to Cd toxicity
"[Na+].[Na+].[S-][S-] [Na2S2, sodium disulfide]",mitochondrial membrane potential,WT and Sqrdl^ΔN/ΔN MEFs; [6],elevation of membrane potential
same,chronological lifespan,[1]; SQR-deficient yeast,no effect
same,chronological lifespan,[1]; WT yeast,extended the lifespan
same,membrane potential of isolated mitochondria,[3],results that were quite similar to those induced by NaHS
C=C(C)[C@H]1Cc2c(ccc3c2O[C@@H]2COc4cc(OC)c(OC)cc4[C@@H]2C3=O)O1 [rotenone],effect on CATR-induced increase in membrane potential,WT and Sqrdl^ΔN/ΔN MEFs; WT MEFs,not significantly affected
COc1[nH]c(=O)c(C(=O)[C@@H](C)C[C@H](C)[C@@H](Cl)CCl)c(O)c1OC [atpenin A5],effect on CATR-induced increase in membrane potential,WT and Sqrdl^ΔN/ΔN MEFs; WT MEFs,not significantly affected
"C=C1[C@@H]2CC[C@H]3[C@]4(C)C[C@H](O[C@@H]5O[C@H](CO)[C@@H](OS(=O)(=O)O)[C@H](OS(=O)(=O)O)[C@H]5OC(=O)CC(C)C)CC(C(=O)O)(C(=O)O)[C@H]4CC[C@]3(C2)[C@H]1O [CATR, carboxyatractyloside]",mitochondrial membrane potential,"WT and Sqrdl^ΔN/ΔN MEFs; Sqrdl^ΔN/ΔN MEFs, CATR treatment",did not observe this increase
same,mitochondrial membrane potential,"WT and Sqrdl^ΔN/ΔN MEFs; WT MEFs, CATR treatment",increased the membrane potential
"N[C@@H](CCC(=O)N[C@@H](CSSSC[C@H](NC(=O)CC[C@H](N)C(=O)O)C(=O)NCC(=O)O)C(=O)NCC(=O)O)C(=O)O [GSSSG, glutathione trisulfide]",membrane potential of isolated mitochondria,[3],increased the membrane potential
same,levels of glutathione hydropersulfide (GSSH),[5],increased levels of glutathione hydropersulfide (GSSH)
